In US4570000A, “Nitrogen heterocycles” (Imperial Chemical Industries, PLC, priority 1981, dated 1986):

Assays:
conscious mice = assay: intravenous toxicity in conscious mice; type: in vivo; settings: four conscious mice, one hundred times the dose giving approximate 50% inhibition of gastric secretion in the anaesthetised rat
Procedure: (§1) No overt toxicity or side effects were noted during the rat or dog tests. The compound 1-[3-(4-[2-(2,2,2-trifluoroethyl)guanidino]pyrimid-2-yloxy)propyl]imidazole was administered intravenously to groups of two anaesthetised rats and four conscious mice at doses which were respectively ten times and one hundred times the dose, in mg./kg., which produced an approximate 50% inhibition of gastric secretion in the anaesthetised rat.

anaesthetised rats = assay: intravenous toxicity in anaesthetised rats; type: in vivo; settings: two anaesthetised rats, ten times the dose giving approximate 50% inhibition of gastric secretion in the anaesthetised rat
Procedure: as §1

SMILES: NC(=NCC(F)(F)F)Nc1ccnc(OCCCn2ccnc2)n1 [Example 6, 1-[3-(4-[2-(2,2,2-trifluoroethyl)guanidino]pyrimid-2-yloxy)propyl]imidazole]
- toxic symptoms (conscious mice): No toxic symptoms
- toxic symptoms (anaesthetised rats): No toxic symptoms
